Series [1] relates to 2.2 kb human GFAP promoter. Briefly: hGFAP promoter luciferase activity assay in 172.9 cells (primary astrocytes from dual luciferase transgenic mice). In kind it is cell-based.
The next series deals with 172.9 cells. The series is described as follows: cell viability (CellTiter-Glo) / MTDcc in 172.9 cells.
A further series has as its system GFAP protein. Briefly: GFAP protein in brain of Tg172.9 mice (sandwich ELISA). In kind it is in vivo, mouse. On the procedure:
Another group of mice were injected with the same volume of vehicle alone (n=15). Brains were bisected sagittally with one half analyzed for GFAP promoter activity using the Dual-Glo assay, and the other half analyzed for GFAP protein using the sandwich ELISA. FIG. 7A is a bar graph showing hGFAP promoter activity of clomipramine-treated mice. The mice show a 26% reduction in hGFAP promoter activity compared to vehicle-treated controls. FIG. 7B is a bar graph showing the GFAP protein levels of clomipramine-treated mice. The mice show a 57% reduction in total GFAP content compared to vehicle-treated controls. Graphs present the mean±SD (* p<0.05, ***p<0.001, unpaired t-test).
At various times after injection, from 0-48 hours, brains were harvested for measurement of GFAP promoter activity using the Dual-Glo luciferase assay, and GFAP protein using a sandwich ELISA.
Injections were given in the afternoon, between 3-5 PM. Controls were transgenic littermates injected with vehicle alone. At the end of the three week course of injections (and one day after the last injection), brains were harvested for analysis of GFAP promoter activity and protein levels as described above.
To achieve significant reductions of GFAP protein in vivo may require chronic treatments, given the slow turnover of this protein. […] Controls were injected with vehicle alone. […]
Background: An ELISA detects its analyte on a solid surface through an enzyme-linked reagent.

The nature of series [2]: pilot studies with daily injections of clomipramine (tolerability). In kind it is in vivo, mouse. Particulars: daily injections of 40 mg/kg; after 2 weeks.

Where “and” joins values, the source holds several entries; their conditions need not be identical. Equal entries are not always repeated.

With `CN(C)CCCN1c2ccccc2CCc2ccc(Cl)cc21` [clomipramine], the “concentrations found effective in cultured astrocytes” value in series [1] (cultured astrocytes) lay in the range of 5 to 10 µM. In addition, the “reductions in luciferase activity” value in series [1] (quaternary screen, 10 days of exposure, 0-20 μM) was “consistent reductions”. Moreover, the “% GFAP reductions, luciferace expression from hGFAP promoter” value in series [1] (tertiary screen, 48 hr exposure, at the MTDcc) turned out to be 66%. Also, in the series on 172.9 cells (quaternary screen, 10 days of exposure), the cell viability result is given as “acceptable cell viability”. In the series on 172.9 cells (tertiary screen, 48 hr exposure, 0.1-20 μM, highest concentration that retained at least 70% cell viability), this compound came in with an MTDcc of 12.5 µM. Besides, the “reduction in GFAP protein compared to vehicle-treated controls” value in the series on GFAP protein (40 mg/kg IP every other day for 3 weeks) was 57% and ~50%. Further, the “changes in GFAP protein levels” value with GFAP protein (acute treatment, single IP injection, 0-48 hours) is reported as “no changes”. The “side effect of daily injections” value in series [2] is “weight loss”.

For the origin of these results see patent US8372808B2, “Suppression of glial fibrillary acidic protein” (Wisconsin Alumni Research Foundation, priority 2008, dated 2013).
